The nature of this data set: Partition coefficient Kpart between n-octanol and aqueous tris hydrochloride. It counts as physicochemical. Particulars: n-octanol / aqueous tris hydrochloride (20 mM, pH 7.4); for logD: octanol/tris hydrochloride 20 mm. How it is done:
The partition coefficients of four or five samples of each of the compounds of Examples 2 and 4 were measured using essentially the procedure described in Example 25 of UK Patent No. 2 136 807. For comparative purposes a similar measurement was made for the compound 1-(2-acetoxyethyl)-2-ethyl-3-hydroxypyridin-4-one which was prepared by an analogous procedure to that of Example 5 using acetyl chloride in place of isobutyryl chloride. The results obtained for the partition coefficient Kpart, being the ratio (concentration of compound in n-octanol)/concentration of compound in aqueous phase on partition between n-octanol and aqueous tris hydrochloride (20 mM, pH 7.4), are shown in the Table.

[1] abbreviates: pH 7.4, mean of four or five samples, read-out: partition coefficient Kpart, Mean ± S.E. (converted).

Each structure is given as a SMILES string. Several values for one entry are separate records, joined by “and”; a condition that tells them apart may be missing. Identical values can stand only once. Like-named read-outs stand apart in the source and are kept apart here.

As to `CCc1c(O)c(=O)ccn1CCOC(=O)C(C)(C)C` [Example 2, 2-ethyl-3-hydroxy-1-(2-pivaloyloxyethyl)pyridin-4-one], the “partition coefficient Kpart (concentration in n-octanol / concentration in aqueous phase), individual samples” value (individual samples 1-5, listed as (CH3)3 CCOO) was 5.104 and 7.992 and 3.870 and 6.742 and 6.855. The “partition coefficient Kpart, Mean ± S.E.” value (mean of four or five samples) turned out to be 6.113 ± 1.622.
With `CCc1c(O)c(=O)ccn1CCOC(=O)C(C)C` [Example 4, 2-ethyl-3-hydroxy-1-[2-(α-methylpropionyloxy)ethyl]pyridin-4-one], the “partition coefficient Kpart (concentration in n-octanol / concentration in aqueous phase), individual samples” value (individual samples 1-5, listed as (CH3)2 CHCOO) is 4.541 and 4.224 and 4.797. In addition, the logD under setting [1] was 0.667 and the logD (individual samples 1-5, read-out: partition coefficient Kpart (concentration in n-octanol / concentration in aqueous phase), individual samples (converted)) is 0.699.
As to `CCc1c(O)c(=O)ccn1CCOC(C)=O` [CH3 COO, 1-(2-acetoxyethyl)-2-ethyl-3-hydroxypyridin-4-one, reference compound], for the setting “individual samples 1-5”, the “partition coefficient Kpart (concentration in n-octanol / concentration in aqueous phase), individual samples” value is 1.500 and 0.948 and 0.940 and 0.962. Further, the logD under setting [1] was 0.0366.

For the origin of these results see patent US5480894A, “3-hydroxypyridin-4-one derivatives as chelating agents” (British Technology Group Limited, priority 1992, dated 1996).
